≈ marks a conversion by molar mass, not a printed value.
Key:
[1] = (§1) AUC in Sprague-Dawley rat at 0.05 mg/kg, iv; type: ADME, organism-based, Plasma; set-up: dose 0.05 mg/kg, route intravenous; details: Sprague-Dawley, plasma
[2] = biological target: Gamma-secretase; experiment: Inhibition of gamma-secretase in human SH-SY5Y cells co-expressing APP C-terminal fragment SPA4CT assessed as inhibition of amyloid beta 42 production by electrochemiluminescent assay; type: cell-based
[3] = Solubility of the compound; type: physicochemical
[4] = Drug uptake in APP-YAC transgenic mouse brain at 100 mg/kg, po after 6 hrs; type: ADME, organism-based; set-up: dose 100 mg/kg, route oral; details: read-out: Drug uptake
[5] = tested on: Mus musculus; experiment: Anti-Alzheimer's disease activity in APP-YAC transgenic mouse model assessed as reduction in amyloid beta 42 production at 100 mg/kg, po; type: functional
[6] = Plasma clearance in Sprague-Dawley rat at 0.05 mg/kg, iv; type: ADME, organism-based; set-up: dose 0.05 mg/kg, route intravenous
[7] = biological target: Gamma-secretase; experiment: Inhibition of gamma-secretase in human SH-SY5Y cells co-expressing APP C-terminal fragment SPA4CT assessed as inhibition of amyloid beta 40 production by electrochemiluminescent assay; type: cell-based
[8] = Half life in Sprague-Dawley rat at 0.05 mg/kg, iv; type: ADME, organism-based; set-up: dose 0.05 mg/kg, route intravenous; details: in vivo
[9] = Ratio of permeability from apical to basolateral side over basolateral to apical side in […] expressing human MDR1; type: ADME, cell-based
[10] = Volume of distribution at steady state in Sprague-Dawley rat at 0.05 mg/kg, iv; type: ADME, organism-based; set-up: dose 0.05 mg/kg, route intravenous; details: in vivo, read-out: Vdss
[11] = Drug uptake in APP-YAC transgenic mouse plasma at 100 mg/kg, po after 6 hrs; type: ADME, organism-based; set-up: dose 100 mg/kg, route oral
[12] = Lipophilicity, log D of the compound; type: physicochemical; details: octanol/water
[13] = Apparent permeability of the compound; type: ADME; details: not told
[14] = tested on: Rattus norvegicus; experiment: as §1; type: ADME, organism-based, Plasma; set-up: dose 0.05 mg/kg, route intravenous; details: in vivo

| Structure (SMILES) | IC50 [2] [µM] | clearance [6] [L/h/kg] | IC50 [7] [µM] | other results |
| --- | --- | --- | --- | --- |
| Cn1cc(C(=O)N2CCC(c3cc(F)ccc3F)(S(=O)(=O)c3ccc(Cl)cc3)CC2)c(C(F)(F)F)n1 | 0.12 | > 5.04 | 0.16 | AUC [1]: 230 nM·h; solubility [3]: 30.6 µM (≈ 16.8 µg/mL); concentration at 6 h [4]: 0.52 µM; inhibition in vivo at 100 mg/kg [5]: 17%; half-life [8]: 2.05 h; Ratio [9]: 1.8; Vd [10]: 11.3 L; concentration at 6 h [11]: 1.78 µM; logD [12]: 3.36; Papp [13]: 307 nm/s |
| Cn1nc(C(F)(F)F)c(C(=O)N2CCC(c3cc(F)ccc3F)(S(=O)(=O)c3ccc(Cl)cc3)CC2)c1Cl | 0.19 | 4.74 | 0.23 | – |
| COc1ccc2c(C(=O)N3CCC(c4cc(F)ccc4F)(S(=O)(=O)c4ccc(Cl)cc4)CC3)c[nH]c2c1 | 0.08 | > 5.04 | 0.27 | – |
| COc1ccc2c(C(=O)N3CCC(c4cc(F)ccc4F)(S(=O)(=O)c4ccc(Cl)cc4)CC3)cn(C)c2c1 | 0.07 | > 5.04 | 0.09 | – |
| Cn1ccnc1C(=O)N1CCC(c2cc(F)ccc2F)(S(=O)(=O)c2ccc(Cl)cc2)CC1 | 0.16 | > 5.04 | 0.2 | – |
| O=C(c1ncccc1C(F)(F)F)N1CCC(c2cc(F)ccc2F)(S(=O)(=O)c2ccc(Cl)cc2)CC1 | 0.05 | 4.83 | 0.07 | – |
| O=C(c1cnccc1C(F)(F)F)N1CCC(c2cc(F)ccc2F)(S(=O)(=O)c2ccc(Cl)cc2)CC1 | 0.11 | > 5.04 | 0.13 | – |
| O=C(c1cnc(Cl)cc1C(F)(F)F)N1CCC(c2cc(F)ccc2F)(S(=O)(=O)c2ccc(Cl)cc2)CC1 | 0.97 | – | 1.09 | – |
| O=C(c1cnc(Cl)nc1C(F)(F)F)N1CCC(c2cc(F)ccc2F)(S(=O)(=O)c2ccc(Cl)cc2)CC1 | > 10 | – | > 10 | – |
| O=C(c1ccccc1C(F)(F)F)N1CCC(c2cc(F)ccc2F)(S(=O)(=O)c2ccc(Cl)cc2)CC1 | 0.21 | 1.91 | 0.26 | – |
| O=C(CCC(F)(F)F)N1CCC(c2cc(F)ccc2F)(S(=O)(=O)c2ccc(Cl)cc2)CC1 | 0.42 | – | 0.4 | – |
| O=C(CC(F)(F)F)N1CCC(c2cc(F)ccc2F)(S(=O)(=O)c2ccc(Cl)cc2)CC1 | 0.09 | > 5.04 | 0.08 | – |
| O=C(N1CCC(c2cc(F)ccc2F)(S(=O)(=O)c2ccc(Cl)cc2)CC1)C1(C(F)(F)F)CCCCC1 | 0.18 | – | 0.22 | – |
| O=C(N1CCC(c2cc(F)ccc2F)(S(=O)(=O)c2ccc(Cl)cc2)CC1)C1(C(F)(F)F)CCCC1 | 0.11 | > 5.04 | 0.14 | – |
| O=C(N1CCC(c2cc(F)ccc2F)(S(=O)(=O)c2ccc(Cl)cc2)CC1)C1(C(F)(F)F)CCC1 | 0.06 | 2.77 | 0.07 | – |
| O=C(N1CCC(c2cc(F)ccc2F)(S(=O)(=O)c2ccc(Cl)cc2)CC1)C1(C(F)(F)F)CC1 | 0.03 | – | 0.03 | AUC [14]: 1190 nM·h; solubility [3]: 26.8 µM (≈ 13.6 µg/mL); concentration at 6 h [4]: 1.18 µM; inhibition in vivo at 100 mg/kg [5]: 37%; half-life [8]: 3.5 h; Ratio [9]: 0.9; Vd [10]: 3.1 L; concentration at 6 h [11]: 0.65 µM; logD [12]: 3.76; Papp [13]: 373 nm/s |
| COC(=O)C1(C(=O)N2CCC(c3cc(F)ccc3F)(S(=O)(=O)c3ccc(Cl)cc3)CC2)CC1 | 0.05 | > 5.04 | 0.1 | – |
| CC1(C(=O)N2CCC(c3cc(F)ccc3F)(S(=O)(=O)c3ccc(Cl)cc3)CC2)CC1 | 0.05 | > 5.04 | 0.07 | – |
| CC(C)(O)C(=O)N1CCC(c2cc(F)ccc2F)(S(=O)(=O)c2ccc(Cl)cc2)CC1 | 0.12 | 4.51 | 0.13 | – |
| CC1(C(=O)N2CCC(c3cc(F)ccc3F)(S(=O)(=O)c3ccc(Cl)cc3)CC2)COC1 | 0.64 | – | 0.88 | – |
| O=C(N1CC[C@](c2cc(F)ccc2F)(S(=O)(=O)c2ccc(Cl)cc2)[C@@H](O)C1)C1(C(F)(F)F)CC1 (racemic) | 0.19 | – | 0.25 | – |
| O=C(N1CC[C@](c2cc(F)ccc2F)(S(=O)(=O)c2ccc(Cl)cc2)[C@H](O)C1)C1(C(F)(F)F)CC1 (racemic) | 0.04 | – | 0.04 | AUC [1]: 3510 nM·h; solubility [3]: 174 µM (≈ 91.1 µg/mL); concentration at 6 h [4]: 7.06 µM; inhibition in vivo at 100 mg/kg [5]: 76%; half-life [8]: 1.6 h; Ratio [9]: 1.2; Vd [10]: 1.65 L; concentration at 6 h [11]: 11.1 µM; logD [12]: 3.27; Papp [13]: 311 nm/s |
| O=C(N1CC[C@](c2cc(F)ccc2F)(S(=O)(=O)c2ccc(Cl)cc2)[C@@H](O)C1)C1(C(F)(F)F)CC1 (single isomer, unassigned; 11b) | 0.09 | – | 0.09 | – |
| O=C(N1CC[C@](c2cc(F)ccc2F)(S(=O)(=O)c2ccc(Cl)cc2)[C@@H](O)C1)C1(C(F)(F)F)CC1 (single isomer, unassigned; 11c) | 2.39 | – | 1.79 | – |
| O=C(N1CC[C@](c2cc(F)ccc2F)(S(=O)(=O)c2ccc(Cl)cc2)[C@H](O)C1)C1(C(F)(F)F)CC1 (single isomer, unassigned; 12b) | 0.08 | – | 0.11 | – |
| O=C(N1CC[C@](c2cc(F)ccc2F)(S(=O)(=O)c2ccc(Cl)cc2)[C@H](O)C1)C1(C(F)(F)F)CC1 (single isomer, unassigned; 12c) | 0.01 | 0.342 | 0.01 | – |

Reference: ChEMBL document CHEMBL2016479, “Lead optimization of 4,4-biaryl piperidine amides as γ-secretase inhibitors” (Bioorg Med Chem Lett, 2012)
